In patent publication US20210276977A1, “BICYCLIC INHIBITORS OF HISTONE DEACETYLASE” (Alkermes, Inc., priority 2018, published 2021):

Assays:
Full length Human HDAC2 = target: T1, Full length Human HDAC2 (Homo sapiens, UniProt Q92769); test: HDAC2 enzymatic assay (deacetylation of FAM-labeled peptide substrate, microfluidic electrophoresis); format: biochemical; settings: for IC50: recombinant enzymatic assay
T1 construct: Full length Human HDAC2; FLAG (C); host or cells: baculovirus expression system
Procedure: (§1) HDAC2 and HDAC1 Enzymatic Assay (HDAC2 and HDAC1 IC50 Data)
(§2) The following describes an assay protocol for measuring the deacetylation of a peptide substrate by HDAC2 or HDAC1.
(§3) HD AC protein composition and respective substrate peptides are summarized below.
(§4) HD AC reactions are assembled in 384 well plates (Greiner) in a total volume of 20 μL as following:
(§5) HDAC proteins are pre-diluted in the assay buffer comprising: 100 mM HEPES, pH 7.5, 0.1% BSA, 0.01% Triton X-100, 25 mM KCl and dispensed into 384 well plate (10 uL per well).
(§6) Test compounds are serially pre-diluted in DMSO and added to the protein samples by acoustic dispensing (Labcyte Echo). Concentration of DMSO is equalized to 1% in all samples.
(§7) Control samples (0%-inhibition in the absence of inhibitor, DMSO only) and 100%-inhibition (in the absence of enzyme) are assembled in replicates of four and used to calculate the %-inhibition in the presence of compounds.
(§8) At this step compounds can be pre-incubated with enzyme if desired.
(§9) The reactions are initiated by addition of 10 uL of the FAM-labeled substrate peptide pre-diluted in the same assay buffer. Final concentration of substrate peptide is 1 uM (HDAC1-2).
(§10) The reactions are allowed to proceed at room temperature. Following incubation, the reactions are quenched by addition of 50 μL of termination buffer (100 mM HEPES, pH7.5, 0.01% Triton X-100, 0.1% SDS). Terminated plates are analyzed on a microfluidic electrophoresis instrument (Caliper LabChip® 3000, Caliper Life Sciences/Perkin Elmer) which enables electrophoretic separation of de-acetylated product from acetylated substrate. A change in the relative intensity of the peptide substrate and product is the parameter measured. Activity in each test sample is determined as the product to sum ratio (PSR): P/(S+P), where P is the peak height of the product, and S is the peak height of the substrate. Percent inhibition (Pinh) is determined using the following equation: Pinh=(PSR0% inh−PSRcompound)/(PSR0% inh−PSR100% inh)*100, in which: PSRcompound is the product/sum ratio in the presence of compound, PSR0% inh is the product/sum ratio in the absence of compound and the PSR100% inh is the product/sum ratio in the absence of the enzyme. To determine IC50 of compounds (50%-inhibition) the %-inh data (Pinh versus compound concentration) are fit by a 4 parameter sigmoid dose-response model using XLfit software (IDBS).
(§11) In the table, “A” indicates a IC50 value of less than 0.5 μM; “B” a IC50 value from 0.5 μM to 1.0 μM; “C” a IC50 value of greater than 1.0 μM and less than or equal to 2.0 μM; and “D” indicates an IC50 value of greater than 2.0 μM. NT=Not Tested.

Full length Human HDAC1 = target: T2, Full length Human HDAC1 (Homo sapiens, UniProt Q13547); test: HDAC1 enzymatic assay (deacetylation of FAM-labeled peptide substrate, microfluidic electrophoresis); format: biochemical; settings: for IC50: recombinant enzymatic assay
T2 construct: Full length Human HDAC1; His (C); FLAG (C); host or cells: baculovirus expression system
Procedure: as §1, §2, §3, §4, §5, §6, §7, §8, §9, §10, §11

HDAC2 = target: T3, HDAC2 (Homo sapiens, UniProt Q92769); test: HDAC2 Enzymatic Inhibition Assay in SH-SY5Y Cell Lysate with an Exogenous Substrate (HDAC-Glo 2); format: cell-based; settings: for IC50: SH-SY5Y cells
T3 construct: host or cells: SH-SY5Y cells
Procedure: HDAC2 Enzymatic Inhibition Assay in SH-SY5Y Cell Lysate with an Exogenous Substrate
SH-SY5Y cells (Sigma) were cultured in Eagle's Modified Essential Medium supplemented with 10% fetal bovine serum and pen/strep. Twenty-four hours prior to compound dosing 20 uL of cells were plated in white 384 well plates at a density of 1,500 cells/well. Compounds were serially diluted in neat DMSO and then diluted 1:100 v/v into media without FBS and mixed. Media was removed from the plated cells and the diluted compounds in serum free media (1% v/v final DMSO) were added and incubated at 37° C. for five hours. Ten uL of HDAC-Glo 2 reagent with 0.1% Triton X-100 was then added, the plate was mixed and allowed to develop at room temperature for 100 minutes. Plates were then read with a Spectramax LMax luminometer employing a 0.4 s integration time. Dose response curves were constructed with normalized data where CI-994 at 100 uM was defined as 100% inhibition and DMSO alone as 0% inhibition.
as §11

[1] = versus matched Comparator with heteroaromatic ring directly linked to azetidine
[2] = five hours incubation, Table 3, class symbols

T1 sequence (Q92769 whole entry): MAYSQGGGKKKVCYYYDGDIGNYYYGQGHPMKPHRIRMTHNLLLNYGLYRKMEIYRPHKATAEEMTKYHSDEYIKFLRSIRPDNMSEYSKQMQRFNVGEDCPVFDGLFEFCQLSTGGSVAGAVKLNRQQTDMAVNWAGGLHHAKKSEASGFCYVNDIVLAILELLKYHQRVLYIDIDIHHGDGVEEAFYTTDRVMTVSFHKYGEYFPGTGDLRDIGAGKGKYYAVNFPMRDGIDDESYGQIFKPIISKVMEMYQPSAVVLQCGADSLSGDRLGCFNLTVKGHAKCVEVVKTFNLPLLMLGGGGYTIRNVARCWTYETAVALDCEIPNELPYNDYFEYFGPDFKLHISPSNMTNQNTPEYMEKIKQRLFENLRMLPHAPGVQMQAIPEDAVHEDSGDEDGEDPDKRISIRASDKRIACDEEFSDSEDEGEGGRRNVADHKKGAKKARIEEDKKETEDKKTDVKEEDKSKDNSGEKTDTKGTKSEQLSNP
T3 sequence (Q92769 whole entry): as above
T2 sequence (Q13547 whole entry): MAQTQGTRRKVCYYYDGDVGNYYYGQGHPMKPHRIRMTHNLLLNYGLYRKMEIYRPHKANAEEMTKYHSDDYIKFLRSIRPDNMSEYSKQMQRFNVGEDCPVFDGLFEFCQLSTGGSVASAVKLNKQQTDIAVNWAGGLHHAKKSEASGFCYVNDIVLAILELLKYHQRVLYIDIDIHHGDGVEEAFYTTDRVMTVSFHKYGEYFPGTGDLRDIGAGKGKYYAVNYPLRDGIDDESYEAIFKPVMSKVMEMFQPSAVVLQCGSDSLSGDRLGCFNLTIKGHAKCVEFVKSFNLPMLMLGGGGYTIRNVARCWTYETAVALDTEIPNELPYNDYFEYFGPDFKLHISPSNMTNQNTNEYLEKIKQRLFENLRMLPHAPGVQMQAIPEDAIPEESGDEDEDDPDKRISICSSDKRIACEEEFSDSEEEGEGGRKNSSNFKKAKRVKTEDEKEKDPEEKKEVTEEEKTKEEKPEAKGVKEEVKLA

Structure (SMILES)	IC50 (Full length Human HDAC2; Table 2, class symbols) [µM]	IC50 (Full length Human HDAC1; Table 2, class symbols) [µM]	IC50 (HDAC2; [2]) [µM]	also measured
Nc1ccc(-c2ccc(F)cc2F)nc1NC(=O)N1CC(c2ncccn2)C1 [Comparator A, reference compound]				IC50 (Full length Human HDAC2; Table 4, numeric): 5.29 µM; IC50 (Full length Human HDAC1; Table 4, numeric): 4.58 µM; IC50 (HDAC2; Table 4, numeric): > 52 µM
Cc1ncc(C2CN(C(=O)Nc3nc(-c4ccc(F)cc4F)ccc3N)C2)cn1 [Comparator B, reference compound]				IC50 (Full length Human HDAC2; Table 4, numeric): > 30 µM; IC50 (Full length Human HDAC1; Table 4, numeric): > 30 µM; IC50 (HDAC2; Table 4, numeric): 30 µM
Cc1cnc(C2CN(C(=O)Nc3nc(-c4ccc(F)cc4F)ccc3N)C2)cn1 [Comparator C, reference compound]				IC50 (Full length Human HDAC2; Table 4, numeric): 13.5 µM; IC50 (Full length Human HDAC1; Table 4, numeric): 13.9 µM; IC50 (HDAC2; Table 4, numeric): 9.7 µM
Nc1ccc(-c2ccc(F)cc2F)nc1NC(=O)N1CC(Cc2ncccn2)C1 [Compound 1]	0.5 to 1	< 0.5	< 0.5	IC50 (Full length Human HDAC2; Table 4, numeric): 0.7 µM; fold more potent in the HDAC2 recombinant enzymatic assay than the corresponding comparator without spacer X (Full length Human HDAC2; [1]): > 7 fold; IC50 (Full length Human HDAC1; Table 4, numeric): 0.454 µM; fold more potent in the HDAC1 recombinant enzymatic assay than the corresponding comparator without spacer X (Full length Human HDAC1; [1]): 10 fold; IC50 (HDAC2; Table 4, numeric): 0.496 µM; fold more potent in the SH-SY5Y cell assay than the corresponding comparator without spacer X (HDAC2; [1]): 100 fold
Nc1ccc(-c2ccc(F)cc2F)nc1NC(=O)N1CC(Cc2ccccn2)C1 [Compound 2]	0.5 to 1	< 0.5	1 to 2	
Nc1ccc(-c2ccc(F)cc2F)nc1NC(=O)N1CC(Cc2cccnc2)C1 [Compound 3]	1 to 2	0.5 to 1	1 to 2	
Nc1ccc(-c2ccc(F)cc2F)nc1NC(=O)N1CC(Cc2ccncc2)C1 [Compound 4]	> 2	> 2	1 to 2	
Cc1ccc(CC2CN(C(=O)Nc3nc(-c4ccc(F)cc4F)ccc3N)C2)cn1 [Compound 5]	1 to 2	1 to 2	> 2	
Cc1ncc(CC2CN(C(=O)Nc3nc(-c4ccc(F)cc4F)ccc3N)C2)cn1 [Compound 6]	> 2	> 2	1 to 2	IC50 (Full length Human HDAC2; Table 4, numeric): 2.8 µM; IC50 (Full length Human HDAC1; Table 4, numeric): 2.26 µM; IC50 (HDAC2; Table 4, numeric): 1.56 µM
Cc1cnc(CC2CN(C(=O)Nc3nc(-c4ccc(F)cc4F)ccc3N)C2)nc1 [Compound 7]	> 2	> 2	1 to 2	
Nc1ccc(-c2ccc(F)cc2F)nc1NC(=O)N1CC(Cc2ccn3cncc3c2)C1 [Compound 8]			> 2	
COCc1ccc(CC2CN(C(=O)Nc3nc(-c4ccc(F)cc4F)ccc3N)C2)cn1 [Compound 9]	> 2	1 to 2	> 2	
Cc1cc(CC2CN(C(=O)Nc3nc(-c4ccc(F)cc4F)ccc3N)C2)nc(C)n1 [Compound 10]			> 2	
Cc1ccnc(CC2CN(C(=O)Nc3nc(-c4ccc(F)cc4F)ccc3N)C2)n1 [Compound 11]	0.5 to 1	0.5 to 1	0.5 to 1	
Nc1ccc(-c2ccc(F)cc2F)nc1NC(=O)N1CC(Cc2cnccn2)C1 [Compound 12]	0.5 to 1	0.5 to 1	1 to 2	
Cc1cncc(CC2CN(C(=O)Nc3nc(-c4ccc(F)cc4F)ccc3N)C2)n1 [Compound 13]	1 to 2	1 to 2	1 to 2	
Cc1cnc(CC2CN(C(=O)Nc3nc(-c4ccc(F)cc4F)ccc3N)C2)cn1 [Compound 14]	0.5 to 1	< 0.5	0.5 to 1	IC50 (Full length Human HDAC2; Table 4, numeric): 0.583 µM; IC50 (Full length Human HDAC1; Table 4, numeric): 0.406 µM; IC50 (HDAC2; Table 4, numeric): 0.687 µM
Cc1nccc(CC2CN(C(=O)Nc3nc(-c4ccc(F)cc4F)ccc3N)C2)n1 [Compound 15]	> 2	> 2	> 2	
Cc1nccnc1CC1CN(C(=O)Nc2nc(-c3ccc(F)cc3F)ccc2N)C1 [Compound 16]	1 to 2	0.5 to 1	0.5 to 1	
COCc1cccc(CC2CN(C(=O)Nc3nc(-c4ccc(F)cc4F)ccc3N)C2)n1 [Compound 17]			> 2	
COCc1cc(CC2CN(C(=O)Nc3nc(-c4ccc(F)cc4F)ccc3N)C2)ccn1 [Compound 18]			> 2	
Cc1cc(CC2CN(C(=O)Nc3nc(-c4ccc(F)cc4F)ccc3N)C2)ncn1 [Compound 19]	1 to 2	1 to 2	0.5 to 1	
Nc1ccc(-c2ccc(F)cc2F)nc1NC(=O)N1CC(Cc2cncnc2)C1 [Compound 20]			> 2	
